The record followed here is EP0926242A1, “GLIOTOXIN DERIVATIVES AND ANTICANCER AGENT COMPRISING THE SAME” (priority 1996, dated 1998).

The structures appear in SMILES notation. Converted amounts (≈) assume the structure as drawn.

For series [1], the system named is Human carcinoma of the colon cell strain HCT-116. As to the kind of experiment: Tertiary culture using test human cancer, killed cells by MTT method. It is filed as cell-based. The settings on record: incubated 3 days. The method, then:
Tertiary cultures were carried out using a human carcinoma of the colon tissue in stage 2b. The tertiary cultures were carried out according to the reported method (Int.J.Cancer Res., 82, 607-612 (1991), Gan to Kagakuryoho, 18, 239-243 (1991), Gan to Kagakuryoho, 19, 743-748 (1992)). The extracted tissue of carninoma of the colon was cut into square pieces having a side of about 2 mm, and incubated in a RPMI- 1640 medium containing 10 % fetal calf serum under 5 % CO2 at 37 °C for 3 days. Existing anticancer agents or acetylgliotoxin were diluted and added, and further incubated for 3 days. Then, the rate of killed cells was determined by the MTT method. The tertiary cultures using the test human cancer were carried out as follows: Human carcinoma of the colon cell strain HCT-116 was transplanted into the subcutaneous tissue of a nude mouse (Balb nu/nu) to induce tumor. The cancer tissue was extracted from the tumor-induced portion, and cut into square pieces having a side of 2 mm. The evaluation of the existing anticancer agents and acetylyliotoxin was earried out according to the aforementioned method.
(In general: Formazan colour is commonly taken as a measure of viable cells.)

Series [2] can be described thus: Body weight in the COLON-26 evaluation in vivo (Example 1). The settings on record: day 21, COLON-26 mice, control 24.7 g. Also noted: species or system CDFI mice. The method, then:
CDFI mice (female: 4 weeks old) were bought, and colon-26 subcultured in vivo in the subcutaneous tissue was taken out. The colon-26 was minced in a Petridish, and transplanted into the sulcutaneous tissue of CDFI mice in an amount of 10 mg/mouse by a trucker. The transplanted day was assigned day 0, and the size of the tumor and body weight were measured on day 7 and divided into groups by n=4. The size of tumor was calculated as tumor weight by the following formula. (Tumor Weight (mg) = Tumor Volume (mm)^3 =1/2 × Major Axis (mm) × Minor Axis (mm))^2 [formula]
Administration was carried out from day 7 according to the following schedule. Dose was 0.2 mL/mouse, and injected into abdominal cavity. Acetylgliotoxin was dissolved in dimethyl sulfoxide (DMSO) in a concentration of 100 mg/mL, and adjusted to an object concentration (0.5 mg/kg, 1 mg/kg, 10 mg/kg, 20 mg/kg) by 5% Tween 80 (saline solution). In the evaluation of […], 1 mg/kg, injection was carried out every day for 5 days, in the case of 10 mg/kg, injected twice on day 7 and day 8, and in the case of 20 mg/kg, injected once on day 7.

The subject of series [3] is U937 (human leukemia ). As to the kind of experiment: Cytotoxity of acetylgliotoxin by the MTT method. It is filed as cell-based. The settings on record: U-937, U937, 72 hours. The method, then:
(§1) Antitumor activity of acetylgliotoxin against various cancer cells was measured by the MTT method. Various cancer cells were adjusted to 4.0 × 10^4 cells/mL by using a medium (hereinafter referred to as medium A) composed of RPMI 1640 medium (GIBCO) containing 10% fetal calf serum, and each 0.1 mL of the cancer cells was pipetted into each well of a 96 well microtiter plate. The plate was incubated in a carbon dioxide gas incubator at 37 °C for 20 hours, and each 0.025 mL of samples (test compounds) suitably diluted with the medium A was added. Then, incubation was further carried out in the carbon dioxide gas incubator at 37 °C for 72 hours. Each 0.01 mL of the MTT solution adjusted to 5 mg/mL by using Dulbecco's PBS (-) (Nissui) was added thereto, and incubated in the carbon dioxide gas incubator at 37 °C for 3 hours. Subsequently, each 0.05 mL of 0.01 N HCl/20 % SDS was added. Produced crystals were dissolved, and absorbance at 570 nm was measured by a microplate reader. By comparing the absorbance of the cells treated with the sample in the known concentration with that of non-treated cells, the sample concentration which inhibits multiplication of the cells at the rate of 50% (IC50) was calculated. Apoptosis was determined by incubating the plate in the carbon dioxide gas incubator at 37 °C for 20 hours, adding each 0.025 mL of samples (test compounds) suitably diluted with the medium A, incubating in the carbon dioxide gas incubator at 37 °C for 72 hours, according to the above method, adding nucleus-staining fluorescent dye DAPI (4,6 - diaminodino-2-henylindole) to each well so as to become 0.5 ng/mL, and after leaving at room temperature for 10 minutes, confirming agglomeration of chromosomes by using a fluorescence microscope.
(§2) Human leukemia cells (K 562 : Dainippon Seiyaku), human carcinoma cells of the colon (HCT-15, HCT-116, SW946: Dainippon Seiyaku), human leukemia cells (U 937: Dainippon Seiyaku), human lung cancer cells (LX-1: Biseibutsu Kagaku Kenkyu-sho), mouse leukemia cells (P 388 : Dainippon Seiyaku), mouse carcinoma cells of the colon (colon-26 : Gan Kenkyu-kai, Gan Kenkyu-sho) Table 1

For series [4], the system named is HCT-116 (human carcinoma of the colon). As to the kind of experiment: Cytotoxity of acetylgliotoxin by the MTT method. It is filed as cell-based. The note with it: HCT-116, 72 hours. The method, then:
as §1, §2

For series [5], the system named is HCT-15 (human carcinoma of the colon). In words: Cytotoxity of acetylgliotoxin by the MTT method. It is filed as cell-based. The settings on record: HCT-15, 72 hours. On the procedure:
as §1, §2

The test system of series [6] is LX-1 (human lung cancer ). As to the kind of experiment: Cytotoxity of acetylgliotoxin by the MTT method. The note with it: LX-1, 72 hours. It is filed as cell-based. The method, then:
as §1, §2

The subject of series [7] is SW948 (human carcinoma of the colon). As to the kind of experiment: Cytotoxity of acetylgliotoxin by the MTT method. It is filed as cell-based. The settings on record: SW948, 72 hours. On the procedure:
as §1, §2

In series [8] the test system is P388 (mouse leukemia ). In words: Cytotoxity of acetylgliotoxin by the MTT method. It is filed as cell-based. The settings on record: P388, 72 hours. The method, then: as §1, §2
For series [9], the system named is colon-26 (mouse carcinoma of the colon ). In words: Cytotoxity of acetylgliotoxin by the MTT method. It is filed as cell-based. The settings on record: colon-26, 72 hours. The method, then: as §1, §2

For the compound `CC(=O)OC1C=CC=C2CC34SSC(CO)(C(=O)N3C21)N(C)C4=O` (centres unmarked) [acetylgliotoxin], the “I. R. (%)” value is reported as 43% in [1] (conc. 6.25 ug/mL), 56% in series [1] (conc. 12.5 ug/mL) and 67% in series [1] (conc. 25 ug/mL). The “weight” value in series [2] (0.5 mg/kg×5 i.p.(d7-11)) came out at 24.7 g; in series [2] (1 mg/kg×5 i.p.(d7-11)) it was 24.9 g; in series [2] (10 mg/kg×2 i.p.(d7, 8)), 24.1 g; in series [2] (20 mg/kg×1 i.p.(d7)), 25.2 g. Moreover, the IC50 (in general, the concentration at which inhibition is half-maximal) in [3] is 0.014 µg/mL (≈ 0.038 µM); in series [4] it was 0.18 µg/mL (≈ 0.489 µM); in series [5], 0.039 µg/mL (≈ 0.106 µM); in series [6], 0.074 µg/mL (≈ 0.201 µM); in series [7], 0.19 µg/mL (≈ 0.516 µM); in [8], 0.0058 µg/mL (≈ 0.0157 µM). Besides, in series [9], the IC50 turned out to be 0.076 µg/mL (≈ 0.206 µM).
